The source made the active and inactive calls.
How the values were obtained:
[1] = target: ATP-dependent RNA helicase DDX3X (Homo sapiens, UniProt O00571)
[2] = target: MAP/microtubule affinity-regulating kinase 3 (Homo sapiens, UniProt P27448)
[3] = target: Myosin-14 (Homo sapiens, UniProt Q7Z406)
[4] = target: T1, Cytochrome c1, heme protein, mitochondrial (Homo sapiens, UniProt P08574)
T1 sequence (P08574 whole entry): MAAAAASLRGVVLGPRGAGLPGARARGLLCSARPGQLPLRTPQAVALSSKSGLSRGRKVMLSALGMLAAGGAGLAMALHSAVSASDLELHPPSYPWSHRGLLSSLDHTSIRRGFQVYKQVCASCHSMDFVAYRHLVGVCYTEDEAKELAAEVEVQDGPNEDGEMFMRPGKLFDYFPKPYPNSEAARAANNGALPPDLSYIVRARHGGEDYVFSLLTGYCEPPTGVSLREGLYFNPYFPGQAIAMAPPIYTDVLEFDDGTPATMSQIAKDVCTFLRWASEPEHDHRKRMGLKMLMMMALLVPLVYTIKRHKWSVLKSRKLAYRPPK

[5] = target: Tyrosine-protein kinase FRK (Homo sapiens, UniProt P42685)
[6] = target: LIM domain kinase 2 (Homo sapiens, UniProt P53671)
[7] = target: Bone morphogenetic protein receptor type-1B (Homo sapiens, UniProt O00238)
[8] = target: Fibroblast growth factor receptor 1 (Homo sapiens, UniProt P11362)
[9] = target: Midasin (Homo sapiens, UniProt Q9NU22)
[10] = target: T2, Peroxisomal acyl-coenzyme A oxidase 1 (Homo sapiens, UniProt Q15067)
T2 sequence (Q15067 whole entry): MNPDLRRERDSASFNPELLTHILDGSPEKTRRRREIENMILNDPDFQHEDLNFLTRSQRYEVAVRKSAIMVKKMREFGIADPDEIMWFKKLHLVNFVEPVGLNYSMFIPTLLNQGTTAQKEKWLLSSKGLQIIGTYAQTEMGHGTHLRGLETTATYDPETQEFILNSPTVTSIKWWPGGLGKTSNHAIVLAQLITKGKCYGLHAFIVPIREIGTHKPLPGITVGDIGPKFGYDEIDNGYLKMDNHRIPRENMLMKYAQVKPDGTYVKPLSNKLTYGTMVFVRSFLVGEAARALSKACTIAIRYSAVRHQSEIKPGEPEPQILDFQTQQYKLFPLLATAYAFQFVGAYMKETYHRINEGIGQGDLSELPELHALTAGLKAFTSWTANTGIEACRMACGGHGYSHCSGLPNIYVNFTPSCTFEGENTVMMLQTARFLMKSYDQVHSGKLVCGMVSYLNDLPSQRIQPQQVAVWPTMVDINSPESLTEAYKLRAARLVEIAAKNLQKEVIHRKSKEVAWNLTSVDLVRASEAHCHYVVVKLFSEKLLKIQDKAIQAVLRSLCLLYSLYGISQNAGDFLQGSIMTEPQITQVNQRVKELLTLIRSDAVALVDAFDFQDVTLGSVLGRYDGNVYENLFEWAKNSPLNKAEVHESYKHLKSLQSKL

[11] = target: T3, Ferrochelatase, mitochondrial (Homo sapiens, UniProt P22830)
T3 sequence (P22830 whole entry): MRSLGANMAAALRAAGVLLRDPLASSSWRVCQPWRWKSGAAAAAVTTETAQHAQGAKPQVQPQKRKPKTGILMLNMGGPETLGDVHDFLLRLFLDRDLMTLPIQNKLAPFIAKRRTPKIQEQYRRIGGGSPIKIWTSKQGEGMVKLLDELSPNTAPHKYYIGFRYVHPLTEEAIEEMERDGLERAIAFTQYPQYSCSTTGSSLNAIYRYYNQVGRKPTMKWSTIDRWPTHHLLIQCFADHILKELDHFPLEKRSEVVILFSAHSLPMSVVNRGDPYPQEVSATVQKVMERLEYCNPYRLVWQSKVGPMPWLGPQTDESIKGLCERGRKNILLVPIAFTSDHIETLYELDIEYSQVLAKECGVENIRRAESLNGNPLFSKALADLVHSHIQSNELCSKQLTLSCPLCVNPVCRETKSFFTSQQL

[12] = target: T4, Ras-related protein Rab-10 (Homo sapiens, UniProt P61026)
T4 sequence (P61026 whole entry): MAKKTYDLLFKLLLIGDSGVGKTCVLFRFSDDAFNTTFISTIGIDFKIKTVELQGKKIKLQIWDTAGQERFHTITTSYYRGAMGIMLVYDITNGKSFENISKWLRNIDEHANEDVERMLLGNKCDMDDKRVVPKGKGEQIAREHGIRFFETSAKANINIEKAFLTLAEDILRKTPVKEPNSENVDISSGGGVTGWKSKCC

[13] = target: T5, Acyl-CoA dehydrogenase family member 11 (Homo sapiens, UniProt Q709F0)
T5 sequence (Q709F0 whole entry): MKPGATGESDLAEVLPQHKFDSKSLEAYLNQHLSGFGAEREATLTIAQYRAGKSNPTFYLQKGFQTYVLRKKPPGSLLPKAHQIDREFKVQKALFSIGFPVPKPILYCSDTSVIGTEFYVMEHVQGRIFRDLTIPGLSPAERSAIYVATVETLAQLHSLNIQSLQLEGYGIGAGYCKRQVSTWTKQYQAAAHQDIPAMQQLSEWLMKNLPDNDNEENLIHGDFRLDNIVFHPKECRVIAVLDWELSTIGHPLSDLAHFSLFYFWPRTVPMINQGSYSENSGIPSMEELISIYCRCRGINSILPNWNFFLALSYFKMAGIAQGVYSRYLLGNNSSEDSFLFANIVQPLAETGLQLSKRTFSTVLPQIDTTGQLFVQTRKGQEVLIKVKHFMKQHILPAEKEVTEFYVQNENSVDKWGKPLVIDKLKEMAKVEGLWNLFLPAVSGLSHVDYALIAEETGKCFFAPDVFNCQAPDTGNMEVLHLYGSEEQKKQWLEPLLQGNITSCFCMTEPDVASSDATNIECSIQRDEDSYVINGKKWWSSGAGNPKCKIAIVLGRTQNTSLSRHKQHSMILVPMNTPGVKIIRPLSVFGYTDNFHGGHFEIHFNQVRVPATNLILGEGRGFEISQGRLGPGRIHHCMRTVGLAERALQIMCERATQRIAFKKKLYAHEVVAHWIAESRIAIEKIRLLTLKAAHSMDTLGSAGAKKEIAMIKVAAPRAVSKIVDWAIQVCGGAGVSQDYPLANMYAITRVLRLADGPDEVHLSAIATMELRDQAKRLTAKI

[14] = target: Ephrin type-A receptor 5 (Homo sapiens, UniProt P54756)
Also: in the data inactive means no Kd found up to 30 µM.

Chain of LIM domain kinase 2 (P53671 whole entry, the tested form may be a part): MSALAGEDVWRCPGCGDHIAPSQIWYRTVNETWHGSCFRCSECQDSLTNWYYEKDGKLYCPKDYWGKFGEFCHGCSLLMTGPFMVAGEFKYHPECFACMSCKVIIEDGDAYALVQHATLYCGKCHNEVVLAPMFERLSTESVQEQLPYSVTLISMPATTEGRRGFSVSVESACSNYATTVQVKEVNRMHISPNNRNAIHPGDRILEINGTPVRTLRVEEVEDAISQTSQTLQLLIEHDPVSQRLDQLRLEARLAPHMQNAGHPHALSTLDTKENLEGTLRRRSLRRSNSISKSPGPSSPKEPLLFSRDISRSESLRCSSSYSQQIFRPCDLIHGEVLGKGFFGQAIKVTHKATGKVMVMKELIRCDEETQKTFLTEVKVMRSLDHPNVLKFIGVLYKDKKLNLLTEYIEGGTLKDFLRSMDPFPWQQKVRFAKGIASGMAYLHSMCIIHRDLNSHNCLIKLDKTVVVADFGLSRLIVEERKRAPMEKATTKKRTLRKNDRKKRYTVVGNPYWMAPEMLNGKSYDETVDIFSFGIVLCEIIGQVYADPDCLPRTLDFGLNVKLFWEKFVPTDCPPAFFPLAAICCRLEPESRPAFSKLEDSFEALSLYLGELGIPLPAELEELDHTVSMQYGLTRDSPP
Chain of ATP-dependent RNA helicase DDX3X (O00571 whole entry): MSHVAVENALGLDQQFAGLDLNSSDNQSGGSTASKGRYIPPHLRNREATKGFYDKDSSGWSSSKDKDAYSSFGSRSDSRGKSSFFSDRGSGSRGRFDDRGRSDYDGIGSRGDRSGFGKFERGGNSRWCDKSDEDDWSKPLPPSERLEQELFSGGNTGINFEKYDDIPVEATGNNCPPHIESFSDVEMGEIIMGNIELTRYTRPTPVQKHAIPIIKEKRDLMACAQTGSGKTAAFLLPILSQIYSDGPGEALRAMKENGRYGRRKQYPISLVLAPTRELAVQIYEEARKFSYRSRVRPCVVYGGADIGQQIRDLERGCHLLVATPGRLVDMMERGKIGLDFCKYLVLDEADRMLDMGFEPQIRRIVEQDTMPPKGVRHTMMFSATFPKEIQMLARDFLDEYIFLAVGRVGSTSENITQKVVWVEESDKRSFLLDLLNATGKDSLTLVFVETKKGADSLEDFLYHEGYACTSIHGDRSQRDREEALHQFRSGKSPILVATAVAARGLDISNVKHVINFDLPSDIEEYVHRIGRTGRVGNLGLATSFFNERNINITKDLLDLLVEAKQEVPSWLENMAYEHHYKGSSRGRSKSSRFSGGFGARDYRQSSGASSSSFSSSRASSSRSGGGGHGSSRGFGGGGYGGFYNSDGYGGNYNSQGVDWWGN
Chain of Bone morphogenetic protein receptor type-1B (O00238 whole entry): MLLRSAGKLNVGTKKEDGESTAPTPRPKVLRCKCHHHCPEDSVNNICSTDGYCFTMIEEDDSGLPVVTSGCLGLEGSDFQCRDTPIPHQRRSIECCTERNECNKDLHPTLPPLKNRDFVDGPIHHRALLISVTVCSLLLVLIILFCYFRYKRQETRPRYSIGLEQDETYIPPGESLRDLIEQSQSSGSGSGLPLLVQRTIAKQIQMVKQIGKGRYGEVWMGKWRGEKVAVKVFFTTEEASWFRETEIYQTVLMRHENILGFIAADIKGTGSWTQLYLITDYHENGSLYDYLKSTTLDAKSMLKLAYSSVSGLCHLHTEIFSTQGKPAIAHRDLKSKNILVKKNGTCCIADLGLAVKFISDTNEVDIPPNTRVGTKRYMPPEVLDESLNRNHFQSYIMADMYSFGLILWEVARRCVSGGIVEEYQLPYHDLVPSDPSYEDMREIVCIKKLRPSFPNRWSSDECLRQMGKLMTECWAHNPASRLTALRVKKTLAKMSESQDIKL
Chain of Myosin-14 (Q7Z406 whole entry): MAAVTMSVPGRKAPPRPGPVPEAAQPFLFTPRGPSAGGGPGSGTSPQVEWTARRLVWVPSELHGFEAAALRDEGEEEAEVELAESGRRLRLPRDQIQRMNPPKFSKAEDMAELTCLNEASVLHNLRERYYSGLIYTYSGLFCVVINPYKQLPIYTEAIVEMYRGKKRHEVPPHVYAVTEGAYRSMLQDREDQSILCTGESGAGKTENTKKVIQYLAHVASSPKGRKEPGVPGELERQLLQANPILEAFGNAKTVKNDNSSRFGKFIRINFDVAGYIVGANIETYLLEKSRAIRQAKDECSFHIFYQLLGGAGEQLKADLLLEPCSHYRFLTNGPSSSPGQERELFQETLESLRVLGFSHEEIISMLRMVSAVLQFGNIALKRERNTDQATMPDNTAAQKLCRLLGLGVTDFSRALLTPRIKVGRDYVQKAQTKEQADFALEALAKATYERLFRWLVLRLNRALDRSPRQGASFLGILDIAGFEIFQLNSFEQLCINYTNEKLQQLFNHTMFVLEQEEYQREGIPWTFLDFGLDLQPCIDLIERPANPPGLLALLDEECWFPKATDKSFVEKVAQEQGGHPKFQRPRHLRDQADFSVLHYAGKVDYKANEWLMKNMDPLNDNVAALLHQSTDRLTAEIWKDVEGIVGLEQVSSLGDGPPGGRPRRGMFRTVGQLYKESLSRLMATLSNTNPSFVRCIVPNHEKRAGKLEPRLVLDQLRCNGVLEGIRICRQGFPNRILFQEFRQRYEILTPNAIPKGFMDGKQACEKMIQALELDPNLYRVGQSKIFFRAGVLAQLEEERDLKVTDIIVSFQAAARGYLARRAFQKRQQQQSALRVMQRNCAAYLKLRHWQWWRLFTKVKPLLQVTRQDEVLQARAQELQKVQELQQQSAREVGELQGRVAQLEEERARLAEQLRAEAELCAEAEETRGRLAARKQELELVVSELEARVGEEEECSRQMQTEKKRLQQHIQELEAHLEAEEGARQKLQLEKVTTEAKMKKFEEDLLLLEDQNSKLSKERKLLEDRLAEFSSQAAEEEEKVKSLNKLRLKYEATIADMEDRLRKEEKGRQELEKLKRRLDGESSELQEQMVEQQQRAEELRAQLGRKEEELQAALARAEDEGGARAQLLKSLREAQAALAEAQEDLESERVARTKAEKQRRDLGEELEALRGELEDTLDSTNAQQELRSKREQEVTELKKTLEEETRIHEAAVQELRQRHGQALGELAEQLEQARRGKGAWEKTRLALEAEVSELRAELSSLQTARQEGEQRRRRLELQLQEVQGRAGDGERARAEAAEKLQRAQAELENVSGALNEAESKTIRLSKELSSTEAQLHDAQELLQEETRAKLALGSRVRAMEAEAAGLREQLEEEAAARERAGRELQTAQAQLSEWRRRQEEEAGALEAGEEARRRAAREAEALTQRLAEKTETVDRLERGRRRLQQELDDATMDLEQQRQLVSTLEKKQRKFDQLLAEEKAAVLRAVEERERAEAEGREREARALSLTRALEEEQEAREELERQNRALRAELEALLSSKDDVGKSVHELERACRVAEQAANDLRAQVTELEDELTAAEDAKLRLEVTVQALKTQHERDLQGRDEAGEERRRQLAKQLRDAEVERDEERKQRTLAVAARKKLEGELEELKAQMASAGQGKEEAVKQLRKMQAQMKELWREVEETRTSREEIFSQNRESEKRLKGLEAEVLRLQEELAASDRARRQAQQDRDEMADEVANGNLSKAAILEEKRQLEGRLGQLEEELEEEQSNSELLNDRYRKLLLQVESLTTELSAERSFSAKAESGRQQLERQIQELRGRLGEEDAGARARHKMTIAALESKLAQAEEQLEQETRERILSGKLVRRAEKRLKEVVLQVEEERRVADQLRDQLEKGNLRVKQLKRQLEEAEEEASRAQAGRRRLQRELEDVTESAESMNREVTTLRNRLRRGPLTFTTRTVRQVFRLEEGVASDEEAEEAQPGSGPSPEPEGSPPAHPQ
Chain of Fibroblast growth factor receptor 1 (P11362 whole entry): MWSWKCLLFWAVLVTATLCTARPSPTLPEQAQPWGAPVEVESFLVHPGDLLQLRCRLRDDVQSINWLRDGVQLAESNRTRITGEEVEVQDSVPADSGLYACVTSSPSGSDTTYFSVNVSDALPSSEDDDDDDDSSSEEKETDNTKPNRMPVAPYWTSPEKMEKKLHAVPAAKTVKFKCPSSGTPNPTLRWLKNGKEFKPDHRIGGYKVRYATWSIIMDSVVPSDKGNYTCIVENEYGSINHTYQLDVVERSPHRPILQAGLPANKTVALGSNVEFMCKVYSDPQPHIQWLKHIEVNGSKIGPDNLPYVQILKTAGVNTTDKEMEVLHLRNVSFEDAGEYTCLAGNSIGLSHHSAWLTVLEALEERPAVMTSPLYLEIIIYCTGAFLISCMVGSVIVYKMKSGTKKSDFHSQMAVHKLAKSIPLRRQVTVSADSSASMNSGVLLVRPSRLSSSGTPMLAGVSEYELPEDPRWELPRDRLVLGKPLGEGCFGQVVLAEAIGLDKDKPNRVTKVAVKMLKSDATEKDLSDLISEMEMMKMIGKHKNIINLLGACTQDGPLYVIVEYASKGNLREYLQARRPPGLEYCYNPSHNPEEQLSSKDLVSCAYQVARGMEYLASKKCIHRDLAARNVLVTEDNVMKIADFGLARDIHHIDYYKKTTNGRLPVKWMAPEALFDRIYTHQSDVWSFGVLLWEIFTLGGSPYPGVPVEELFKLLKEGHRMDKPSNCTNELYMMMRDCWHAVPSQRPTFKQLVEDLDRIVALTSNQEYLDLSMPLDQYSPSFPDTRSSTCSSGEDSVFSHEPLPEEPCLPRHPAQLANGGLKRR

SMILES	Kd [1]	Kd [2]	Kd [3]	Kd [4]	Kd [5]	Kd [6]	Kd [7]	Kd [8]	Kd [9]	Kd [10]	Kd [11]	Kd [12]	Kd [13]	Kd [14]
COc1c(OCCCN2CCOCC2)ccc2c1N=C(NC(=O)c1cnc(N)nc1)N1CCN=C21 [COPANLISIB]	> 30 µM (inactive)	> 30 µM (inactive)	> 30 µM (inactive)	> 30 µM (inactive)	> 30 µM (inactive)	> 30 µM (inactive)	> 30 µM (inactive)	> 30 µM (inactive)	> 30 µM (inactive)	> 30 µM (inactive)	> 30 µM (inactive)	> 30 µM (inactive)	> 30 µM (inactive)	> 30 µM (inactive)
C#Cc1cccc(Nc2ncnc3cc(OC)c(OCCCCCCC(=O)NO)cc23)c1 [CUDC-101]	> 30 µM (inactive)	> 30 µM (inactive)	> 30 µM (inactive)	> 30 µM (inactive)	> 30 µM (inactive)	> 30 µM (inactive)	> 30 µM (inactive)	> 30 µM (inactive)	> 30 µM (inactive)	> 30 µM (inactive)	2.87 µM (active)	> 30 µM (inactive)	> 30 µM (inactive)	> 30 µM (inactive)
O=C(Nc1nc2cccc(-c3ccc(CN4CCS(=O)(=O)CC4)cc3)n2n1)C1CC1 [FILGOTINIB]	> 30 µM (inactive)	> 30 µM (inactive)	> 30 µM (inactive)	> 30 µM (inactive)	> 30 µM (inactive)	> 30 µM (inactive)	> 30 µM (inactive)	> 30 µM (inactive)	> 30 µM (inactive)	> 30 µM (inactive)	> 30 µM (inactive)	> 30 µM (inactive)	> 30 µM (inactive)	> 30 µM (inactive)
CNC(=O)c1nn(C)c2c1C(C)(C)Cc1cnc(Nc3ccc(N4CCN(C)CC4)cc3)nc1-2 [MILCICLIB]	> 30 µM (inactive)	3.44 µM (active)	> 30 µM (inactive)	> 30 µM (inactive)	3.02 µM (active)	> 30 µM (inactive)	> 30 µM (inactive)	1.42 µM (active)	> 30 µM (inactive)	> 30 µM (inactive)	> 30 µM (inactive)	> 30 µM (inactive)	> 30 µM (inactive)	0.147 µM (active)
CCOc1cc2ncc(C#N)c(Nc3ccc(F)c(Cl)c3)c2cc1NC(=O)/C=C/CN(C)C [PELITINIB]	> 30 µM (inactive)	> 30 µM (inactive)	> 30 µM (inactive)	> 30 µM (inactive)	> 30 µM (inactive)	> 30 µM (inactive)	> 30 µM (inactive)	> 30 µM (inactive)	> 30 µM (inactive)	> 30 µM (inactive)	10.5 µM (active)	> 30 µM (inactive)	> 30 µM (inactive)	> 30 µM (inactive)
Cc1cnc(NC(=O)Nc2cc(Br)c(C)cc2OC[C@@H]2CNCCO2)cn1 [RABUSERTIB]	> 30 µM (inactive)	> 30 µM (inactive)	> 30 µM (inactive)	> 30 µM (inactive)	> 30 µM (inactive)	> 30 µM (inactive)	> 30 µM (inactive)	> 30 µM (inactive)	> 30 µM (inactive)	> 30 µM (inactive)	3.82 µM	> 30 µM (inactive)	> 30 µM (inactive)	> 30 µM (inactive)

The remaining lines, values ahead:

Kd [1]	Kd [2]	Kd [3]	Kd [4]	Kd [5]	Kd [6]	Kd [7]	Kd [8]	Kd [9]	Kd [10]	Kd [11]	Kd [12]	Kd [13]	Kd [14]	SMILES
> 30 µM (inactive)	> 30 µM (inactive)	> 30 µM (inactive)	> 30 µM (inactive)	> 30 µM (inactive)	> 30 µM (inactive)	> 30 µM (inactive)	> 30 µM (inactive)	> 30 µM (inactive)	> 30 µM (inactive)	> 30 µM (inactive)	> 30 µM (inactive)	> 30 µM (inactive)	> 30 µM (inactive)	Cc1cccc(-c2nn3c(c2-c2ccnc4ccc(C(N)=O)cc24)CCC3)n1 [GALUNISERTIB]
> 30 µM (inactive)	> 30 µM (inactive)	> 30 µM (inactive)	> 30 µM (inactive)	> 30 µM (inactive)	> 30 µM (inactive)	> 30 µM (inactive)	> 30 µM (inactive)	> 30 µM (inactive)	> 30 µM (inactive)	> 30 µM (inactive)	> 30 µM (inactive)	> 30 µM (inactive)	> 30 µM (inactive)	CNC(=O)c1cccc2cc(Oc3ccnc4cc(OCC5(N)CC5)c(OC)cc34)ccc12 [LUCITANIB]
> 30 µM (inactive)	> 30 µM (inactive)	> 30 µM (inactive)	> 30 µM (inactive)	> 30 µM (inactive)	> 30 µM (inactive)	> 30 µM (inactive)	> 30 µM (inactive)	> 30 µM (inactive)	> 30 µM (inactive)	32.6 µM (active)	> 30 µM (inactive)	> 30 µM (inactive)	> 30 µM (inactive)	Cn1cc(-c2cnc3ccc4ccc(CS(=O)(=O)NCc5ccccn5)cc4c(=O)c3c2)cn1 [MK-8033]
> 30 µM (inactive)	> 30 µM (inactive)	> 30 µM (inactive)	> 30 µM (inactive)	> 30 µM (inactive)	> 30 µM (inactive)	> 30 µM (inactive)	> 30 µM (inactive)	> 30 µM (inactive)	> 30 µM (inactive)	> 30 µM (inactive)	> 30 µM (inactive)	> 30 µM (inactive)	> 30 µM (inactive)	FC(F)(F)c1ccc(/C=C/c2nc(COc3ccc(CCCCn4ccnn4)cc3)co2)cc1 [MUBRITINIB]

Reference: ChEMBL document CHEMBL3991601, “The target landscape of clinical kinase drugs” (Science, 2017)
